Laboratory results as given in article PMC4718634, “Murine GPRC6A Mediates Cellular Responses to L-Amino Acids, but Not Osteocalcin Variants” (PLoS ONE, 2016).
Entries after “also recorded” stand apart in the source; their conditions may differ.

Experiments:
mGPRC6A (mouse GPRC6A) = biological target: T1, mGPRC6A (mouse GPRC6A) (Mus musculus, UniProt Q8K4Z6); assay: Cyclic AMP accumulation, HEK293-pIRES-puro6-mGPRC6A cells; assay type: cell-based; conditions: pIRES-puro6 higher-expressing line, S2 Fig
T1 sequence (Q8K4Z6 21-928): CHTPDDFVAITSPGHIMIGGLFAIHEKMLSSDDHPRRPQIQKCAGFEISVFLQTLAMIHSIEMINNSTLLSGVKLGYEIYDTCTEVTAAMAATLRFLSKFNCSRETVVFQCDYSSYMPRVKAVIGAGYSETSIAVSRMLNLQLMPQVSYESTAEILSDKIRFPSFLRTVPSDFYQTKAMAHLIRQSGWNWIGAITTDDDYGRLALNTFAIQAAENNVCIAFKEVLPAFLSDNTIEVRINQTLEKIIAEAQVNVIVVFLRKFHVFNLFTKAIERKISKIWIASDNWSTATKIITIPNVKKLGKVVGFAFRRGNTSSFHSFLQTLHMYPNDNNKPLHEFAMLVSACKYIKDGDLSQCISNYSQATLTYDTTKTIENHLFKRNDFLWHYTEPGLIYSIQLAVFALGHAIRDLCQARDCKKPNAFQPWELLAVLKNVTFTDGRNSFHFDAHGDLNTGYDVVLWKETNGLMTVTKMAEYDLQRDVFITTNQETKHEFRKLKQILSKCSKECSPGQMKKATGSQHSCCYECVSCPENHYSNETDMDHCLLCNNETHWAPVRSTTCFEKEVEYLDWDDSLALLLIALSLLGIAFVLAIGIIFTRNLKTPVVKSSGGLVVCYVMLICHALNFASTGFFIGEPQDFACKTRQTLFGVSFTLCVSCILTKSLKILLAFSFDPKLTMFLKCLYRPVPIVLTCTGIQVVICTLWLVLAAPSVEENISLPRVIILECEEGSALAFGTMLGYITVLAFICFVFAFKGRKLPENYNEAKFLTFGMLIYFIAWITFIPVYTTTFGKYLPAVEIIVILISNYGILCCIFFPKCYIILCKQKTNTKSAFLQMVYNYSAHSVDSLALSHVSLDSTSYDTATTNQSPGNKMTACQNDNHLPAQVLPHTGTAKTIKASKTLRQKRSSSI
Method: pcDNA 5/FRT/TO constructs were isogenically integrated into a FlpIn-TREx-HEK293 cell line (Life Technologies). FlpIn-TREx-HEK293-mGPRC6A and FlpIn-TREx-HEK293-hGPRC6A cells were then selected using 600 μg/ml hygromycin and 5 μg/ml blasticidin and grown in culture medium consisting of Dulbecco’s Modified Eagle Medium (DMEM), supplemented with 10% (v/v) foetal bovine serum (FBS) at 37°C in 5% CO2 and were sub-cultured in a 1:3 ratio every 3–4 days. Cells were cultured overnight in the presence of 1 μg/ml tetracycline to induce GPRC6A expression. […] 48 h after transfection, cells were selected using 3 μg/ml puromycin and grown as above.
HEK293-mGPRC6A cells were seeded at a density of 10^5 cells per well into PDL-coated 96-well plates and incubated overnight in DMEM, supplemented with 10% FBS (v/v) at 37°C in 5% CO2. Cells were then incubated in 90 μl of stimulation buffer (HBSS containing 5 mM HEPES, 0.1% BSA (w/v), 0.5 mM IBMX; pH 7.4) for 30 min at 37°C. Test compounds (10 μl at 10 x final) were added and cells were incubated for an additional 30 min at 37°C. The medium was removed and cells were incubated in 50 μl of ice-cold 100% ethanol. […] Samples were analysed using the Alphascreen® cAMP assay kit (Perkin Elmer) following manufacturer instructions. […] After overnight (16 h) incubation at RT, plates were read using the Envision plate reader.

INS-1(832) cells = assay: Label-free cell impedance, INS-1(832) cells; assay type: cell-based, rat; conditions: S1 Table
Method in brief: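 INS-1(832) cells seeded at 2 x 10^4/well, cultured 48 h in 11.1 mM glucose RPMI, then switched to EBSS containing 2.8 mM glucose for 2 h. Compound added in the same buffer; impedance captured and analysed as for HEK293 cells.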

GPRC6A = conditions: GPRC6A-expressing cell lines or mouse pancreatic islets; ref [29]; cited from earlier work
Text: (§1) The involvement of GPRC6A has been shown by transfection of receptor-specific siRNA, receptor blockade with a polyclonal antibody and, in the case of the islets, using tissue from KO mice.

[1] = system: GPRC6A-expressing cell lines or mouse pancreatic islets; conditions: ref [31]; cited from earlier work
Text: as §1

mouse GPRC6A = conditions: ref [13]; cited from earlier work
Text: Additional interest in GPRC6A has emerged due to several studies reporting that it mediates the metabolic and endocrine effects of the de-carboxylated form of the osteoblast-derived peptide, osteocalcin (OCN). […] Given these discrepancies, we sought to evaluate the pharmacology of human and mouse GPRC6A in a range of cell signalling assays ...

Row | Molecule | inhibition of forskolin-stimulated cAMP (mGPRC6A (mouse GPRC6A); forskolin 3 μM) | stimulation of cAMP accumulation (mGPRC6A (mouse GPRC6A)) | xCELLigence response (summary) (INS-1(832) cells) | intracellular calcium mobilisation (GPRC6A) | β-cell proliferation [1] | agonist activity of OCN at mouse GPRC6A (mouse GPRC6A)
1 | NCCC[C@H](N)C(=O)O [L-ornithine] | none of the ligands inhibit | Neither L-ornithine nor OCN variants stimulate cAMP accumulation | – | – | – | –
2 | OCN: osteoblast-derived peptide, osteocalcin; variant not specified at the place (YLYQWLGAPVPYPDPLEPRREVCELNPDCDELADHIGFQEAYRRFYGPV; UniProt P02818 52-100, looked up) | – | – | xCELLigence – response to OCN | cause intracellular calcium mobilisation | increased β-cell proliferation | no agonist effect of OCN was evident in any of the assays profiled; also recorded: failed to replicate either the agonist activity of OCN
